# Legend:
# BEAS-2B cells = assay: Apoptosis (Hoechst 33342) and mitochondrial membrane potential (JC-1), BEAS-2B (Example 22); format: cell-based, human
# Protocol: Severe DSBs may cause apoptosis. SPCA-1 and BEAS-2B cells were plated and cultured for 24 h before they were treated with 10 μM JAC4 for 24 h and 4 Gy X-ray for 24 h. The cells were stained with Hoechst 33342 (see Hoechst staining for apoptosis detection in Example 13) to evaluate the effect of JAC4 in combination with radiation on apoptosis. […] The decrease in mitochondrial membrane potential (JC-1) is a marker event in the early stage of apoptosis. The mitochondrial membrane potential was measured using fluorescent probe JC-1. The red fluorescence indicates a high mitochondrial membrane potential leading to JC-1 aggregate formation, and the green fluorescence indicates the mitochondrial membrane potential depolarization. The fluorescence ratio of red to green reflects the mitochondrial membrane potential and the number of early apoptotic cells.
# JWA^IEC-ko mice = assay: X-ray-induced intestinal injury in intestinal epithelial JWA-knockout mice (Example 12); format: in vivo; conditions: JAC4 10 mg/kg daily, ABI 10 Gy
# Text: The Model Animal Research Institute of Nanjing University was commissioned to conduct the construction of JWA^flox/+ A129 mice and embryo cryopreservation, preservation, and thawing. These mice were bred with wild-type C57/BL6 mice for over six generations to give mice of C57/BL6 background. Villin-cre mice, provided by Shanghai Model Organisms Center, Inc., were C57/BL6 mice. The JWA-knockout mice (JWA^ko) and their littermate control (JWA^wt) counterparts were derived from an in-house conservation breed. The JWA^flox/flox mice were bred from the JWA^flox/+ mice. The intestinal epithelial JWA-knockout mice (JWA^IEC-ko) and control group (JWA^IEC-wt) were obtained through breeding JWA^flex/flex mice with Villin-cre mice.
# The off-target model was established using JWA^IEC-ko mice and their JWA^IEC-wt littermates (8 weeks old), and the mice receiving radiation were divided into 4 groups: (1) a JWA^IEC-wt mice+vehicle group (n=5); (2) a JWA^IEC-wt mice+JAC4 group (n=5); (3) a JWA^IEC-ko mice+vehicle group (n=6); (4) a JWA^IEC-ko mice+JAC4 group (n=5). All mice were subjected to abdominal irradiation at 10 Gy. 7 days before radiation, 10 mg/kg JAC4 or an equal volume of vehicle (polyethylene glycol:ethanol:physiological saline=40:7.5:52.5, v/v/v) was administered intragastrically daily until the end of modeling. The blank control group (wild type, n=6) was not irradiated, and the modeling was terminated on day 4 after radiation.
# To verify whether the protective effect of JAC4 on X-ray radiation-induced intestinal damage in mice is dependent on the expression of JWA, the present disclosure verified the targeting effect of JAC4 using JWA^IEC-ko mice.
# JWA^IEC-ko and JWA^IEC-wt mice were treated daily with JAC4 (10 mg/kg) or an equal volume of vehicle (polyethylene glycol:ethanol:physiological saline=47.5:7.5:50, v/v/v), respectively, from 7 days before the ABI (10 Gy) exposure to 4 days after the exposure. […] Meanwhile, the contents of TNF-α and IL-1β were consistent with the results of FD4. […] As shown in panels E and F, ABI increased the activity of GSH-Px (530.8±207.8 vs. 406.2±197.9 U/mL) and decreased the activity of CAT (89.4 f 0.4 vs. 68.7±14.2 U/mL). JAC4 further enhanced the antioxidant enzymes in JWA^IEC-wt mice (815.1±203.9 vs. 530.8±207.8 U/mL and 85.9±8.2 vs. 68.7±14.2 U/mL; P<0.05, P<0.05). […] Intestinal tissues were isolated, and the expression of apoptotic molecules was detected by Western blot (FIG. 16J). In wild-type mice, compared with the control group, X-rays increased the expression of Bax and cleaved PARP1 in the small intestine.
# SPCA-1 cells [1] = assay: γ-H2AX foci and Western blot (DSBs), SPCA-1 (Example 22); format: cell-based, human
# Protocol: To investigate the effect of JAC4 in combination with X-ray on DSBs in SPCA-1 and BEAS-2B cells, SPCA-1 and BEAS-2B cells were pretreated with 10 μM JAC4 for 24 h and 4 Gy X-ray for 2 h, and then subjected to γ-H2AX fluorescent labeling and Western immunoblot (see Example 4 for detailed procedures).
# SPCA-1 cells [2] = assay: CCK-8 cell viability, JAC4 with X-ray, SPCA-1 (Example 22); format: cell-based, human; conditions: 10 μM JAC4 24 h + 4 Gy X-ray 24 h
# Protocol: SPCA-1 and BEAS-2B cells were cultured in a 90%/DMEM+10% FBS+100 μg/mL ciprofloxacin culture medium. The SPCA-1 and BEAS-2B cells were pretreated for 24 h with 10 μM JAC4 and subjected to 4 Gy X-ray treatment for 24 h and then CCK-8 detection, so as to explore the influence of JAC4 in combination with X-ray on the viability of SPCA-1 and BEAS-2B cells. The specific procedures are as follows:
# 1. SPCA-1 and BEAS-2B cells in the exponential growth phase were plated in a 96-well plate at 5,000 cells/well in triplicate for each group.
# 2. After 24 h of culture, when the cells fully adhered to the container wall and returned to normal morphology, the cells were treated with X-ray radiation of 0, 4, 8, 12, 16, or 20 Gy or JAC4 at 0, 1, 5, 10, 20, or 50 μM.
# 3. After 24 h of treatment, CCK-8 reagent was added at 10 μL/well, and the cells were incubated in a cell incubator for 1 h. The absorbance (OD) at 450 nm was measured.
# 4. Cell viability equation: cell viability (%)=[…]×100%/(ODcontrol−ODblank).
# SPCA-1 cells [3] = assay: Intracellular ROS (DCFH-DA), SPCA-1 (Example 22); format: cell-based, human
# Text: The large amount of reactive oxygen species (ROS) induced by X-ray and the sustained oxidative stress reaction may cause DNA damage. Superoxide dismutase (SOD) and catalase (CAT) exert antioxidant effects, and the lipid oxidation product malondialdehyde (MDA) and ROS can reflect the oxidative stress level in vivo. The intracellular ROS level was detected using the fluorescent probe DCFH-DA. […] The supernatant of BEAS-2B cells was extracted and subjected to an MDA assay and an activity assay for CAT and SOD.
# IEC-6 cells = assay: Western blot of DNA repair and apoptosis proteins in irradiated IEC-6 cells (Example 14); format: cell-based
# [4] = SPCA-1, 10 μM JAC4 + 4 Gy X-ray vs X-ray monotherapy
# [5] = JAC4 1 μM or 10 μM 24 h + 12 Gy, vs control group
compound,measurement,setting,value
c1ccc(CSc2nnc(C3COc4ccccc4O3)o2)nc1 (stereo not shown) [JAC4],apoptosis (Hoechst 33342),BEAS-2B cells; 10 μM JAC4 24 h + 4 Gy X-ray 24 h,decreased the pro-apoptotic effect of X-ray
same,mitochondrial membrane potential (JC-1),BEAS-2B cells; JAC4 in combination with X-ray,reversed the X-ray-induced decrease in mitochondrial membrane potential
same,"enhancement of antioxidant enzymes (GSH-Px, CAT)",JWA^IEC-ko mice,not confirmed
same,plasma FD4 content,JWA^IEC-ko mice,9192.8 ± 5573.2 ng/mL
same,plasma IL-1β,JWA^IEC-ko mice,65.6 ± 3.3 ng/mL
same,plasma TNF-α,JWA^IEC-ko mice,769.8 ± 112.3 ng/mL
same,crypt height,JWA^IEC-ko mice; day 4,53.0±3.0 μm
same,intestinal villus length,JWA^IEC-ko mice; day 4,150.6±8.4 μm
same,γ-H2AX foci,"SPCA-1 cells [1]; SPCA-1, 10 μM JAC4 24 h + 4 Gy X-ray 2 h vs X-ray monotherapy",increase
same,JWA expression level (Western blot),SPCA-1 cells [1]; [4],increased
same,γ-H2AX expression level (Western blot),SPCA-1 cells [1]; [4],increased
same,viability of SPCA-1 cells (CCK-8),SPCA-1 cells [2],significantly inhibited
same,ROS level,SPCA-1 cells [3],no significant effect
same,anti-apoptotic proteins (Bcl-2),IEC-6 cells; [5],increases
same,"pro-apoptotic proteins (spliced PARP1, spliced Caspase-3, spliced Caspase-9, Bax)",IEC-6 cells; [5],decreases
same,XRCC1 expression level,IEC-6 cells; JAC4 treatment after radiation (small intestine tissue and IEC-6 cells),increased its expression level

# Reference: patent US20250345318A1, “COMPOUND AND USE THEREOF IN PREVENTING OR TREATING RADIATION DAMAGE” (SIMCERE PHARMACEUTICAL CO., LTD., priority 2022, published 2025)
